Earlier results on one compound are cited in patent US20240366580A1, “NOVEL PHARMACEUTICAL COMPOSITIONS COMPRISING DABIGATRAN ETEXILATE OR SALT THEREOF” (Zim Laboratories Limited, priority 2021, published 2024).

Counter-ions that a name gives are not always drawn.

For series [1] the following is noted: high permeability, low solubility.
The conditions of series [2]: oral administration.

On to `CCCCCCOC(=O)NC(=N)c1ccc(NCc2nc3cc(C(=O)N(CCC(=O)OCC)c4ccccn4)ccc3n2C)cc1` [Dabigatran etexilate mesylate, β-Alanine, N-[[2-[[[4-[[[(hexyloxy)carbonyl]amino]iminomethyl]phenyl]amino]methyl]-1-methyl-1H-benzimidazol-5-yl]carbonyl]-N-2-pyridinyl-,ethyl ester, methanesulfonate], for which the BCS class entry in series [1] is given as “Class II”. Where the note is “ethanol”, the solubility in ethanol entry was “slightly soluble”. Further, the solubility in isopropanol result (isopropanol) is on record as “sparingly soluble”. In addition, the solubility in methanol result (methanol) was “freely soluble”. Further, the absolute bioavailability in series [2] was 3-7%.
